According to publication PMC4687525, “Drosophila Avoids Parasitoids by Sensing Their Semiochemicals via a Dedicated Olfactory Circuit” (PLoS Biology, 2015):

Target: T1, Or85f (Drosophila melanogaster, UniProt Q9VHE6)
T1 construct: full-length receptor, UAS-Or85f transgene expressed in mutant ab3A neuron lacking Or22a (delta-halo empty neuron); endogenous Orco; with Odorant receptor coreceptor
T1 sequence (Q9VHE6 1-392): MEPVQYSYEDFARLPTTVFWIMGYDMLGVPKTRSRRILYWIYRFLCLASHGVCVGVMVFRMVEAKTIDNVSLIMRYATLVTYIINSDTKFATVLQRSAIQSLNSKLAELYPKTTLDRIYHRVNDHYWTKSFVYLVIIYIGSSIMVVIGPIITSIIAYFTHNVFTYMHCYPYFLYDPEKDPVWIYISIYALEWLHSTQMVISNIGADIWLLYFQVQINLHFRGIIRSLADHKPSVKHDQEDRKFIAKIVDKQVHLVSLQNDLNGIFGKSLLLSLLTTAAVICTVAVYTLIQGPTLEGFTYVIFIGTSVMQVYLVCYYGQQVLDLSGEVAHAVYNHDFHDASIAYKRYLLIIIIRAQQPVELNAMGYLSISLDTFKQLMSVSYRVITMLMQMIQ
T1 sequence (Q9VNB5 1-486 partner): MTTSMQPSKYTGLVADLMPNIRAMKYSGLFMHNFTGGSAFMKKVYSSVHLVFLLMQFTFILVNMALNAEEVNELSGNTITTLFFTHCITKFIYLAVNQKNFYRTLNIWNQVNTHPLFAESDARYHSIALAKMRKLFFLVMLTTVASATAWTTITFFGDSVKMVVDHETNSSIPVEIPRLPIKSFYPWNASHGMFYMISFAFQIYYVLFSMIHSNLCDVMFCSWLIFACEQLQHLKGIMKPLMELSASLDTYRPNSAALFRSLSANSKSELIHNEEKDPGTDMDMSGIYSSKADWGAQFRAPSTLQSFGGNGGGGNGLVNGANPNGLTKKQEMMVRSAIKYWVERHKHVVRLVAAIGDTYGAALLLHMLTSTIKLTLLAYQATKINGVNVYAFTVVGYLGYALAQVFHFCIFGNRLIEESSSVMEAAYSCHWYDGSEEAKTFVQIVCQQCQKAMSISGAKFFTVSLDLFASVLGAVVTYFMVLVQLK
Experiment: GC-coupled single sensillum recording, empty neuron (ab3A)
Format: cell-based
Details: agonist

[1] = reference sample described as racemic

Row | SMILES | GC-coupled single sensillum recording, empty neuron (ab3A) [1] | GC-coupled single sensillum recording, empty neuron (ab3A)
1 | CC1=CO[C@@H](O)[C@@H]2[C@@H]1CC[C@@H]2C (racemic) [1R4aS7S7aS-nepetalactol] | 1S4aR7R7aS, 1R4aS7S7aS-nepetalactol and their enantiomers) activated OSNs expressing Or85f | –
2 | Cc1cncc2c1CC[C@H]2C [(R)-actinidine] | – | When we tested OSNs misexpressing Or85f, they became activated by (R)-actinidine and nepetalactol
3 | CC1=CO[C@H](O)[C@H]2[C@H](C)CC[C@@H]12 (racemic) [1S4aR7R7aS-nepetalactol] | 1S4aR7R7aS, 1R4aS7S7aS-nepetalactol and their enantiomers) activated OSNs expressing Or85f | –
